# Experiment: Stability of cephalosporin C solution without thiol on heating
# Format: physicochemical
# Settings: aqueous cephalosporin C solution without the thiol, 80° C.
smiles,measurement,value
"CC(=O)OCC1=C(C(=O)O)N2C(=O)C(NC(=O)CCC[C@@H](N)C(=O)O)[C@H]2SC1 (stereo partly drawn) [cephalosporin C, 3-acetoxymethyl-7-(D-5-amino-5-carboxypentan amido)-ceph-3-em-4-carboxylic acid]",time to complete degradation (β-lactam ring degradation),≤ 40 min

# — patent US6642020B2, “Process for preparing cephalosporin derivatives” (Bioferma Murcia S.A., priority 2001, dated 2003)
